What was measured:
Assay type in all cases: cell-based
[1] = molecular target: T1, SEQ ID NO:33 with substitution S172D (Homo sapiens, UniProt P36544, F159M/H163T/I152M/R155K/S172D/V154L/W156N/Y151P); assay: Electrophysiology, automated patch clamp in HEK293T cells; settings: FIG. 10B
T1 construct: expressed in transfected cells; host or cells: Lenti-X 293T (HEK293T) cells, pcDNA3.1(+) plasmid
Experimental: (§1) For HEK293T studies, cDNAs encoding ion channels were cloned into pcDNA3.1 using standard recombination techniques. HEK293T cells from Clontech (Lenti-X™ 293T Cell Line) were cultured in DMEM supplemented with 10% FBS and 1% Pen/Strep to 40-50% confluence using standard cell culture protocols, transfected with ion channel plasmids at a concentration of 18 μg per 15 cm dish using Fugene 6, and grown for an additional 24 hours. Cells were then assayed on a medium throughput electrophysiological system (IonFluxHT and/or Mercury, Fluxion Biosciences) in which dose-response relationships may be assessed through a microfluidics-based platform for establishing whole cell configurations. Ensemble plates were primed with extracellular buffer (140 mM NaCl, 5 mM KCl, 2 mM CaCl2, 1 mM MgCl2, 10 mM HEPES, and 10 mM glucose, pH 7.2 with NaOH, mOsm 310), intracellular buffer (145 mM CsCl, 2 mM CaCl2, 2 mM MgCl2, 10 mM HEPES, and 10 mM EGTA, pH 7.2 with CsOH, mOsm 305), as adapted from Lynagh and Lynch, and test compounds (stocks prepared fresh) diluted in extracellular buffer. Cells were then released from the plate with Accutase, centrifuged, resuspended in extracellular buffer, and loaded into Ensemble plates. Cells were then subjected to a standard protocol for priming, trapping, breaking, and establishing whole cell configuration, with cells held at −60 mV throughout the recording. After recording baseline, progressive doses of test compounds were applied using the IonFlux software to assess dose response relationships. Data were then analyzed off-line using custom Python scripts to convert data to .csv format, re-plot traces, and apply QC measurements to reject unstable recordings (i.e. thresholding based on access resistance and/or standard deviation in baseline, as well as artifact rejection). Peak currents were then calculated and population data were fit using a 4-parameter logistic equation as described by the Hill Equation

[2] = molecular target: T2, SEQ ID NO:33 with substitution L131T (Homo sapiens, UniProt P36544, F159M/H163T/I152M/L131T/R155K/V154L/W156N/Y151P); assay: as above; settings: FIG. 10D
T2 construct: expressed in transfected cells; host or cells: Lenti-X 293T (HEK293T) cells, pcDNA3.1(+) plasmid
Experimental: as §1

[3] = molecular target: T3, SEQ ID NO:33 with substitution L131S (Homo sapiens, UniProt P36544, F159M/H163T/I152M/L131S/R155K/V154L/W156N/Y151P); assay: as above; settings: FIG. 10A
T3 construct: expressed in transfected cells; host or cells: Lenti-X 293T (HEK293T) cells, pcDNA3.1(+) plasmid
Experimental: as §1

[4] = molecular target: T4, SEQ ID NO:33 with substitution W77M (Homo sapiens, UniProt P36544, F159M/H163T/I152M/R155K/V154L/W156N/W77M/Y151P); assay: as above; settings: FIG. 10C
T4 construct: expressed in transfected cells; host or cells: Lenti-X 293T (HEK293T) cells, pcDNA3.1(+) plasmid
Experimental: as §1

[5] = molecular target: T4, SEQ ID NO:33 with substitution W77M; assay: Plate reader YFP quench (anion reporter) assay, dose response curves; settings: FIG. 9B
Experimental: Lenti-X 293T cells (LX293T, Clontech) were maintained in DMEM containing 10% FBS and 1% penicillin/streptomycin (Invitrogen). […] The next day, the cells were transiently transfected with 0.1 μg of DNA per well using standard Fugene protocol (Promega). On the day of assay, cells were washed 2 times in 1× extracellular solution (1×ECS: 140 mM NaCl, 5 mM KCl, 1 mM MgCl2, 2 mM CaCl2, 10 mM HEPES, 10 mM glucose, pH 7.2, mOsms 300). After the last wash, 100 μL of 1×ECS was added to the wells and the plate was incubated at 37° C. for 30 min. While incubating the plate, the drugs were diluted to a 2× concentration in 1×ECS-NaI (same components as 1×ECS except the 140 mM NaCl was replaced by 140 mM NaI). The plates were then read on a Flexstation3 (Molecular Devices). Each well, 8 wells at a time, of the plate is read for 2 min using a Flexstation3 (Molecular Devices) as follows: 1) a baseline YFP fluorescence is read for 17 sec, 2) 100 μL of ligand is added, and 3) the changes in YFP fluorescence are then measured every 1.3 sec for the remaining time.
To further tune the responsiveness of the engineered LGIC receptors to native and non-native ligands, the binding pocket of each ligand in the alpha7-nAChR was modeled and the amino acid residues that form the binding pocket were mapped. […]

T4 sequence (P36544 with tags, fused parts or gaps W77M/Y151P/I152M/V154L/R155K/W156N/F159M/H163T): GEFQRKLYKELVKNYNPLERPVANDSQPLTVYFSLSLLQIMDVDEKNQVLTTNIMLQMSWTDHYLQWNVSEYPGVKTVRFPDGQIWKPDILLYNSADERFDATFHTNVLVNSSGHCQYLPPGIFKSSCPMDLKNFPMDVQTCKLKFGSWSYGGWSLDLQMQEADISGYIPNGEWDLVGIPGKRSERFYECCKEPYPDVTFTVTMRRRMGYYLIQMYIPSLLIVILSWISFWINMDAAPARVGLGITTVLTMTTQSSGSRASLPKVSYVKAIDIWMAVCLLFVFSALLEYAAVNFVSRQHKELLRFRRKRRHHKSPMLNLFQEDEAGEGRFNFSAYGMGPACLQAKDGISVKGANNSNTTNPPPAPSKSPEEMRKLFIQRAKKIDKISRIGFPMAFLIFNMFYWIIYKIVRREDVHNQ
T2 sequence (P36544 with tags, fused parts or gaps L131T/Y151P/I152M/V154L/R155K/W156N/F159M/H163T): as the sequence (P36544 with tags, fused parts or gaps W77M/Y151P/I152M/V154L/R155K/W156N/F159M/H163T) above, with M55W, L109T counted along it
T3 sequence (P36544 with tags, fused parts or gaps L131S/Y151P/I152M/V154L/R155K/W156N/F159M/H163T): as the sequence (P36544 with tags, fused parts or gaps W77M/Y151P/I152M/V154L/R155K/W156N/F159M/H163T) above, with M55W, L109S counted along it
T1 sequence (P36544 with tags, fused parts or gaps Y151P/I152M/V154L/R155K/W156N/F159M/H163T/S172D): as the sequence (P36544 with tags, fused parts or gaps W77M/Y151P/I152M/V154L/R155K/W156N/F159M/H163T) above, with M55W, S150D counted along it

Structure (SMILES): c1cnc2c(c1)C[C@@]1(CN3CCC1CC3)O2 [AZD-0328]
- right-ward shift in EC50 relative to parental chimera SEQ ID NO:33 [1]: 2 fold
- right-ward shift in EC50 relative to parental chimera SEQ ID NO:33 [2]: ~1 log
- right-ward shift in EC50 relative to parental chimera SEQ ID NO:33 [3]: 2 fold
- right-ward shift in EC50 relative to parental chimera SEQ ID NO:33 [4]: > 2.5 log
- increase in EC50 (rightward shift) compared to unmutated SEQ ID NO:33 [5]: > 2 log

Reference: patent US10538571B2, “Compositions and methods for neurological diseases” (Coda Biotherapeutics, Inc., priority 2017, dated 2020)
